Laboratory results reported in patent US9375000B2, “Pesticidal arylpyrrolidines” (Bayer Intellectual Property GmbH, priority 2011, dated 2016).

How the values were obtained:
Assay type in all cases: in vivo
[1] = test system: Two-Spotted Spider Mite (Tetranychus urticae); assay: Two-spotted spider mite (Tetranychus urticae) spray test on kidney bean; conditions: after 7 days
Protocol: (§1) Unless not mentioned otherwise, the test solutions were prepared as follows:
(§2) Solvent: 3 parts by weight Dimethylformamide
(§3) Emulsifier: 1 part by weight Polyoxyethylene alkyl phenyl ether
(§4) In order to make an appropriate formulation of an active compound, 1 part by weight of the active compound is mixed with the above mentioned amount of solvent and emulsifier and the mixture is diluted with water to a prescribed concentration. Ammonium salt or ammonium salt and penetration enhancer in a dosage of 1000 ppm are added to the desired concentration if necessary.
50 to 100 adult mites of Tetranychus urticae were inoculated to leaves of kidney bean at two-leaf stage planted in a pot of 6 cm in diameter. After one day, test solution at the appropriate concentration was sprayed thereon in a sufficient amount using a spray gun. After the spraying, the plant pot was placed inside a greenhouse, and after 7 days, the acaricidal activity was calculated. An acaricidal activity of 100% means that all mites were killed, whereas an acaricidal activity of 0% means that no mite was killed.

[2] = test system: Cucurbit Leaf Beetle (Aulacophora femoralis); assay: Cucurbit leaf beetle (Aulacophora femoralis) cucumber leaf dip test; conditions: after 7 days; for pest or weed control at 20 ppm: Aulacophora, foliar, 168 h, read-out: insecticidal activity
Protocol: as §1, §2, §3, §4
Leaves of cucumber were immersed in the test solution at the appropriate concentration, and the leaves were dried in air. The leaves were then put in a plastic cup containing sterilized black soil and five Aulacophora femoralis at second instar larvae were released in the cup. The cups were placed in a temperature-controlled chamber at 25° C. After 7 days, the number of dead larvae was counted, and thus the insecticidal activity was calculated. An insecticidal activity of 100% means that all larvae were killed, whereas an insecticidal activity of 0% means that no larva was killed.

[3] = test system: Larvae of Spodoptera litura; assay: Larvae of Spodoptera litura, method using artificial feeds; conditions: artificial feed, after 7 days
Protocol: as §1, §2, §3, §4
[A Method Using Artificial Feeds (Trade Name: Insecta LFM, Manufactured by Nosan Corporation)]
Powdery artificial feeds (2.3 g) were added to a plastic cup (diameter: 7.5 cm, height: 4 cm) to achieve a certain thickness. Water-diluted liquid (5 ml) of the active compound prepared above having predetermined concentration was evenly poured thereto and allowed to stand until the feeds were solidified. Five of the 3rd-instar larvae of Spodoptera litura were released in respective cups, and covered. The cups were put in a temperature controlled room at 25° C. and humidity of 50 to 60%, and the number of dead larvae after 7 days was determined to calculate the pesticidal ratio. 100% pesticidal ratio means death of all the larvae, while 0% pesticidal ratio means no dead larvae.

[4] = active compound concentration 100 ppm
[5] = active compound concentration 20 ppm
[6] = active compound concentration 4 ppm

SMILES: CC(C)(C)OC(=O)NCc1ccc(N2CCC(c3cc(Cl)c(Cl)c(Cl)c3)(C(F)(F)F)C2O)cc1Cl (mixture of isomers) [A1-68]
- acaricidal activity [1, 4]: 100%

SMILES: CC(C)(C)OC(=O)NCc1ccc(N2CCC(c3cc(C(F)(F)F)cc(C(F)(F)F)c3)(C(F)(F)F)C2O)cc1C(F)(F)F (mixture of isomers) [A1-72]
- insecticidal activity [2, 4]: 100%
- insecticidal activity (pesticidal ratio) [3, 4]: 100%

SMILES: CCC(=O)NCc1ccc(N2CCC(c3cc(Cl)cc(Cl)c3)(C(F)(F)F)C2O)cc1CC (mixture of isomers) [A1-85]
- acaricidal activity [1, 5]: 90%

SMILES: CC(=O)NCc1ccc(N2CCC(c3cc(C(F)(F)F)cc(C(F)(F)F)c3)(C(F)(F)F)C2O)cc1C (mixture of isomers) [A1-183]
- insecticidal activity [2, 5]: 100%
- insecticidal activity (pesticidal ratio) [3, 5]: 100%

SMILES: COCCC(=O)NCc1ccc(N2CCC(c3cc(C(F)(F)F)cc(C(F)(F)F)c3)(C(F)(F)F)C2O)cc1C (mixture of isomers) [A1-190]
- acaricidal activity [1, 5]: 100%
- insecticidal activity [2, 5]: 100%

SMILES: CCC(=O)NCc1ccc(N2CCC(c3cc(Br)cc(Br)c3)(C(F)(F)F)C2O)nc1C(F)(F)F (mixture of isomers) [A3-178]
- insecticidal activity [2, 5]: 100%
- insecticidal activity (pesticidal ratio) [3, 5]: 100%

SMILES: O=C(NCc1ccc(N2CCC(c3cc(Br)cc(Br)c3)(C(F)(F)F)C2O)nc1C(F)(F)F)C1CC1 (mixture of isomers) [A3-181]
- insecticidal activity [2, 5]: 100%
- insecticidal activity (pesticidal ratio) [3, 5]: 100%

SMILES: CS(=O)(=O)CC(=O)NCc1ccc(N2CCC(c3cccc(C(F)(F)F)c3)(C(F)(F)F)C2O)cc1C(F)(F)F (racemic) [A1-303]
- acaricidal activity [1, 5]: 100%
- insecticidal activity [2, 5]: 100%

SMILES: CC(=O)NCc1ccc(N2CCC(c3cccc(C(F)(F)F)c3)(C(F)(F)F)C2O)nc1C(F)(F)F (racemic) [A3-221]
- insecticidal activity [2, 5]: 100%

SMILES: O=C(CC1CC1)NCc1ccc(N2CCC(c3cccc(C(F)(F)F)c3)(C(F)(F)F)C2O)nc1C(F)(F)F (racemic) [A3-226]
- acaricidal activity [1, 6]: 100%
- acaricidal activity [1, 5]: 100%
- insecticidal activity [2, 6]: 100%
- insecticidal activity [2, 5]: 100%

SMILES: CCC(=O)NCc1ccc(N2CCC(c3cc(Cl)cc(Cl)c3)(C(F)(F)F)C2O)cc1Cl (stereo not shown) [A1-2]
- acaricidal activity [1, 5]: 100%
- insecticidal activity [2, 5]: 100%

SMILES: CC(=O)NCc1ccc(N2CCC(c3cc(Cl)cc(Cl)c3)(C(F)(F)F)C2O)cc1C(F)(F)F (stereo not shown) [A1-34]
- insecticidal activity [2, 5]: 100%
- insecticidal activity (pesticidal ratio) [3, 5]: 100%

SMILES: CC(C)(C)OC(=O)NCc1ccc(N2CCC(c3cc(C(F)(F)F)cc(C(F)(F)F)c3)(C(F)(F)F)C2O)cc1Cl (stereo not shown) [A1-69, tert-butyl (4-{3-[3,5-bis(trifluoromethyl)phenyl]-2-hydroxy-3-(trifluoro-methyl)pyrrolidin-1-yl}-2-chlorobenzyl)carbamate]
- pest or weed control at 20 ppm [2, 5]: 100%

SMILES: CCC(=O)NCc1ccc(N2CCC(c3cc(F)cc(Cl)c3)(C(F)(F)F)C2O)cc1C(F)(F)F (stereo not shown) [A1-239]
- acaricidal activity [1, 5]: 100%

SMILES: CCC(=O)NCc1ccc(N2CCC(c3cc(Cl)cc(Cl)c3)(C(F)(F)F)C2O)cc1 (stereo not shown) [A1-373]
- insecticidal activity [2, 5]: 100%
- insecticidal activity (pesticidal ratio) [3, 5]: 100%

SMILES: CCC(=O)NCc1ccc(N2CCC(c3cc(C(F)(F)F)cc(C(F)(F)F)c3)(C(F)(F)F)C2O)cc1 (stereo not shown) [A1-395]
- insecticidal activity [2, 5]: 100%
- insecticidal activity (pesticidal ratio) [3, 5]: 100%

SMILES: CC(=O)NCc1cc(F)c(N2CCC(c3cc(Cl)c(Cl)c(Cl)c3)(C(F)(F)F)C2O)cc1F (stereo not shown) [A1-453]
- insecticidal activity (pesticidal ratio) [3, 6]: 80%

SMILES: O=C(NCc1cc(F)c(N2CCC(c3cc(Cl)c(Cl)c(Cl)c3)(C(F)(F)F)C2O)cc1F)C1CC1 (stereo not shown) [A1-457]
- insecticidal activity [2, 6]: 100%
- insecticidal activity (pesticidal ratio) [3, 6]: 100%

SMILES: O=C(NCc1cc(F)c(N2CCC(c3cc(Cl)c(Cl)c(Cl)c3)(C(F)(F)F)C2O)cc1Cl)C1CC1 (stereo not shown) [A1-481]
- insecticidal activity [2, 6]: 100%
- insecticidal activity (pesticidal ratio) [3, 6]: 100%

SMILES: Cc1c(CNC(=O)C2CC2)ccc(N2CCC(c3cc(Cl)c(Cl)c(Cl)c3)(C(F)(F)F)C2O)c1F (stereo not shown) [A1-493]
- insecticidal activity [2, 6]: 100%
- insecticidal activity (pesticidal ratio) [3, 6]: 100%

SMILES: CCC(=O)NCc1ccc(N2CCC(c3cc(Cl)cc(Cl)c3)(C(F)(F)F)C2O)nc1C(F)(F)F (stereo not shown) [A3-2]
- insecticidal activity [2, 5]: 100%
- insecticidal activity (pesticidal ratio) [3, 5]: 100%

SMILES: CC(=O)NCc1ccc(N2CCC(c3cc(C(F)(F)F)cc(C(F)(F)F)c3)(C(F)(F)F)C2O)nc1C (stereo not shown) [A3-122]
- insecticidal activity (pesticidal ratio) [3, 6]: 100%
- insecticidal activity (pesticidal ratio) [3, 5]: 100%

SMILES: Cc1nc(N2CCC(c3cc(C(F)(F)F)cc(C(F)(F)F)c3)(C(F)(F)F)C2O)ccc1CNC(=O)C1CC1 (stereo not shown) [A3-126]
- insecticidal activity [2, 5]: 100%
- insecticidal activity (pesticidal ratio) [3, 5]: 100%

SMILES: Cc1nc(N2CCC(c3cc(C(F)(F)F)cc(C(F)(F)F)c3)(C(F)(F)F)C2O)ccc1CNC(=O)CS(C)(=O)=O (stereo not shown) [A3-132]
- insecticidal activity (pesticidal ratio) [3, 6]: 100%
- insecticidal activity (pesticidal ratio) [3, 5]: 100%

SMILES: CC(=O)NCc1ccc(N2CCC(c3cc(C(F)(F)F)cc(C(F)(F)F)c3)(C(F)(F)F)C2O)nc1Br (stereo not shown) [A3-155]
- insecticidal activity [2, 6]: 100%
- insecticidal activity [2, 5]: 100%
- insecticidal activity (pesticidal ratio) [3, 6]: 100%
- insecticidal activity (pesticidal ratio) [3, 5]: 100%

SMILES: CCC(=O)NCc1ccc(N2CCC(c3cc(C(F)(F)F)cc(C(F)(F)F)c3)(C(F)(F)F)C2O)nc1Br (stereo not shown) [A3-156]
- insecticidal activity [2, 5]: 100%
- insecticidal activity (pesticidal ratio) [3, 5]: 100%

SMILES: CCC(=O)NCc1ccc(N2CCC(c3cc(Cl)c(F)c(Cl)c3F)(C(F)(F)F)C2O)nc1Br (stereo not shown) [A3-323]
- insecticidal activity [2, 6]: 100%
- insecticidal activity (pesticidal ratio) [3, 6]: 100%

SMILES: O=C(NCc1cc(F)c(N2CCC(c3cc(Cl)c(Cl)c(Cl)c3)(C(F)(F)F)C2O)nc1Cl)C1CC1 (stereo not shown) [A3-370]
- insecticidal activity [2, 6]: 100%
- insecticidal activity (pesticidal ratio) [3, 6]: 100%

SMILES: CC(=O)NCc1cc(F)c(N2CCC(c3cc(C(F)(F)F)cc(C(F)(F)F)c3)(C(F)(F)F)C2O)nc1Cl (stereo not shown) [A3-377]
- insecticidal activity [2, 6]: 100%
- insecticidal activity (pesticidal ratio) [3, 6]: 100%

SMILES: C=C(C)N(Cc1ccc(N2CCC(c3cc(Cl)c(Cl)c(Cl)c3)(C(F)(F)F)C2O)nc1C(F)(F)F)C(=O)C1CC1 (stereo not shown) [A3-424]
- insecticidal activity [2, 6]: 100%
- insecticidal activity (pesticidal ratio) [3, 6]: 100%

SMILES: CN(C)CC(=O)NCc1cnc(N2CCC(c3cc(Cl)cc(Cl)c3)(C(F)(F)F)C2O)nc1C(F)(F)F (stereo not shown) [A4-201]
- insecticidal activity (pesticidal ratio) [3, 4]: 100%

SMILES: O=C(NCc1cnc(N2CCC(c3cc(Cl)cc(Cl)c3)(C(F)(F)F)C2O)nc1C(F)(F)F)C1CCCN1 (stereo not shown) [A4-202]
- insecticidal activity (pesticidal ratio) [3, 4]: 100%

SMILES: CC(C)(C)OC(=O)N1CCCC1C(=O)NCc1cnc(N2CCC(c3cc(Cl)cc(Cl)c3)(C(F)(F)F)C2O)nc1C(F)(F)F (stereo not shown) [A4-203]
- insecticidal activity (pesticidal ratio) [3, 4]: 80%

SMILES: O=C(NCc1cnc(N2CCC(c3cc(C(F)(F)F)cc(C(F)(F)F)c3)(C(F)(F)F)C2O)nc1Cl)C1CC1 (stereo not shown) [A4-252]
- insecticidal activity [2, 6]: 100%
- insecticidal activity (pesticidal ratio) [3, 6]: 100%

SMILES: N#CCC(=O)NCc1cnc(N2CCC(c3cc(Cl)cc(Cl)c3)(C(F)(F)F)C2O)nc1C(F)(F)F (stereo not shown) [A4-435]
- acaricidal activity [1, 5]: 100%

SMILES: CCC(=O)NCc1ccc(N2CC(c3cc(C(F)(F)F)cc(C(F)(F)F)c3)(C(F)(F)F)CC2O)nc1C(F)(F)F (stereo not shown) [A′3-24, N-{[6-{4-[3,5-bis(trifluoromethyl)phenyl]-2-hydroxy-4-(trifluoromethyl)pyrrolidin-1-yl}-2-(trifluoromethyl)pyridin-3-yl]methyl}propanamide]
- pest or weed control at 20 ppm [2, 5]: 100%
- pest or weed control at 20 ppm ([3]; Spodoptera litura, 168 h, active compound concentration 20 ppm, read-out: insecticidal activity (pesticidal ratio)): 100%

SMILES: CCC(=O)NCc1ccc(N2CCC(c3cc(C(F)(F)F)cc(C(F)(F)F)c3)(C(F)(F)F)C2=O)cc1 (stereo not shown) [B1-96]
- insecticidal activity [2, 5]: 100%
- insecticidal activity (pesticidal ratio) [3, 5]: 100%

SMILES: CCC(=O)NCc1ccc(N2CC(c3cc(Cl)c(Cl)c(Cl)c3)(C(F)(F)F)CC2=O)nc1C (stereo not shown) [C1-74]
- insecticidal activity (pesticidal ratio) [3, 5]: 100%

SMILES: CCC(=O)NCc1ccc(N2CC(c3cc(Cl)cc(Cl)c3)(C(F)(F)F)CC2=O)nc1C(F)(F)F (stereo not shown) [C3-2]
- insecticidal activity (pesticidal ratio) [3, 5]: 100%

SMILES: O=C(NCc1ccc(N2CC(c3cc(Cl)cc(Cl)c3)(C(F)(F)F)CC2=O)nc1C(F)(F)F)C1CC1 (stereo not shown) [C3-5]
- insecticidal activity (pesticidal ratio) [3, 5]: 100%

SMILES: CCCC(=O)NCc1ccc(N2CCC(c3cc(Cl)c(Cl)c(Cl)c3)(C(F)(F)F)C2O)cc1C(F)(F)F (stereo not shown) [a1-47]
- insecticidal activity (pesticidal ratio) [3, 5]: 100%

SMILES: N#Cc1ccc(N2CCC(c3cc(Cl)c(F)c(Cl)c3F)(C(F)(F)F)C2O)cc1C(F)(F)F (stereo not shown) [a1-48, 4-[3-(3,5-dichloro-2,4-difluorophenyl)-2-hydroxy-3-(trifluoromethyl)-pyrrolidin-1-yl]-2-(trifluoromethyl)benzonitrile]
- pest or weed control at 20 ppm [2, 5]: 100%
